Experimental data published in PubChem BioAssay AID1996.
Values after ≈ are worked out from the molar mass of the structure shown.

Settings: buffer; pH 7.4; 200.0 µM

Going from COc1ccc(Cl)cc1NS(=O)(=O)c1cccc(C(=O)NC2CC2)c1 to O=C(NC1CCN(Cc2ccc(Cl)c(Cl)c2)CC1)c1ccccc1, the solubility kinetic falls from greater than 57.1 µg/mL to 1.9 µg/mL (≈ 5.23 µM).

First: CCCCNC1=NCCS1
Second: CCCCNC(=O)c1cc2cc(OC)ccc2[nH]1
The solubility kinetic of the first is higher: greater than 23.7 µg/mL for the first, 15.4 µg/mL (≈ 62.5 µM) for the second.

First: O=C(Nc1nc(-c2ccccc2)cs1)c1ccccc1F
Second: COc1ccccc1C(=O)Nc1ccccc1C(=O)Nc1ccccc1
The solubility kinetic of the first is higher: 0.4 µg/mL (≈ 1.34 µM) for the first, less than 0.4 µg/mL for the second.

Going from O=C(COc1ccccc1)Nc1ccncc1Cl to COc1ccc([N+](=O)[O-])cc1NC(=O)COC(=O)c1ccccn1, the solubility kinetic falls from 32.3 µg/mL (≈ 123 µM) to 20.9 µg/mL (≈ 63.1 µM) (1.5-fold).

Going from CN(Cc1ccccc1)C(=O)c1cc(=O)[nH]c2ccccc12 to O=C(CSc1nc2ccccc2[nH]1)NCc1ccccc1, the solubility kinetic falls from greater than 43.9 µg/mL to 33.7 µg/mL (≈ 113 µM).

COc1ccccc1C(=O)Nc1onc(C)c1C#N and COc1ccccc1C(=O)NC1CCN(C(=O)Nc2ccc(C)cc2)CC1 cannot be ordered by solubility kinetic: greater than 38.6 µg/mL for the first, 46.8 µg/mL (≈ 127 µM) for the second.

Cc1nc(CC(=O)c2ccc(O)c(C)c2O)cs1 and Cc1ccc(C)c(NC(=O)c2cc(C)nc3ccccc23)c1 are within 1.5-fold of each other in solubility kinetic: 36.7 µg/mL (≈ 139 µM) for the first, 33.5 µg/mL (≈ 115 µM) for the second.

CCCN1CCN(S(=O)(=O)c2cn(C)nc2C)CC1 and N#Cc1ccccc1S(=O)(=O)N1CCN(C(=O)C2CCCCC2)CC1 cannot be ordered by solubility kinetic: greater than 43 µg/mL for the first, greater than 54.2 µg/mL for the second.

CCOC(=O)C1CCN(Cc2ccc3ccccc3c2)CC1 and NC(=O)C1CCN(CC(O)CSc2ccc(F)cc2)CC1 (stereo unspecified) are within 1.5-fold of each other in solubility kinetic: 25.9 µg/mL (≈ 87.1 µM) for the first, 37.3 µg/mL (≈ 119 µM) for the second.

O=C(COc1ccccc1N1C(=O)C2C3C=CC(C3)C2C1=O)c1ccccc1 (stereo unspecified) and CC(C(=O)Nc1ccccc1)N1C(=O)c2ccccc2C1=O (stereo unspecified) cannot be ordered by solubility kinetic: greater than 56 µg/mL for the first, greater than 44.1 µg/mL for the second.

First: CC1CN(C)C(C)C/C1=N/Oc1ccccc1[N+](=O)[O-].Cl (stereo unspecified)
Second: Cc1ccc(OCC(=O)N2CCc3ccccc32)c([N+](=O)[O-])n1
The solubility kinetic of the first is 46-fold higher: 46.2 µg/mL for the first, 1 µg/mL (≈ 3.19 µM) for the second.

Cn1cnc([N+](=O)[O-])c1Sc1ncnc2nc[nH]c12 and CN(C)c1cccc2c1c(NS(=O)(=O)c1cn(C)cn1)nn2C cannot be ordered by solubility kinetic: greater than 41.6 µg/mL for the first, greater than 50.2 µg/mL for the second.

Going from Oc1ccccc1C=Nc1cccc2ccccc12 to N#Cc1ccccc1Oc1ccccc1C=O, the solubility kinetic rises from 9.4 µg/mL (≈ 38 µM) to 31.6 µg/mL (≈ 142 µM) (3.4-fold).

Compared with COc1ccc(S(=O)(=O)n2cnc(C)c2)cc1, COc1ccc(NS(=O)(=O)c2ccc(C(=O)N3CCN(c4ccc(F)cc4)CC3)cc2)cc1 is lower in solubility kinetic: greater than 37.8 µg/mL for the first, 12.1 µg/mL (≈ 25.8 µM) for the second.

CC(=O)OCC(=O)Nc1ccc(SC(F)F)cc1 and CC(OC(=O)CCCC(=O)Nc1ccc(F)cc1)C(=O)c1ccccc1 (stereo unspecified) cannot be ordered by solubility kinetic: greater than 41.3 µg/mL for the first, 44.7 µg/mL (≈ 125 µM) for the second.

First: O=C(NCCc1ccccc1)C1CC(=O)N(C2CCCCC2)C1 (stereo unspecified)
Second: O=C(O)C(=O)O.c1ccc(CCNC2CCCCCC2)cc1
The solubility kinetic of the first is higher: greater than 47.2 µg/mL for the first, 45.3 µg/mL for the second.

Going from COc1cc(/C=C2/SC(=O)NC2=O)ccc1OCc1ccccc1 to c1ccc(CNc2ncnc3sccc23)cc1, the solubility kinetic rises from less than 0.7 µg/mL to 31.9 µg/mL (≈ 132 µM).

Compared with Cc1ccc(S(=O)(=O)NCC(=O)OCC(=O)N2CC(C)OC(C)C2)cc1 (stereo unspecified), Cc1cccc(C(=O)NCC(=O)OCC(=O)N2CCCCC2)c1 is lower in solubility kinetic: greater than 57.7 µg/mL for the first, 46 µg/mL (≈ 144 µM) for the second.

Compared with O=C(/C=C/c1ccncc1)c1ccc2c(c1)OCCO2, CN(C(=O)CSc1ccc2c(c1)OCCO2)c1ccccc1 is higher in solubility kinetic: 26.9 µg/mL (≈ 101 µM) for the first, greater than 47.3 µg/mL for the second.

Compared with O=C(COC(=O)CN1C(=O)NC2(CCCCC2)C1=O)Nc1cc(F)ccc1F, O=S(=O)(Nc1ccc(N2CCCCC2)cc1)c1ccc(F)cc1F is lower in solubility kinetic: greater than 59.3 µg/mL for the first, 41.3 µg/mL (≈ 117 µM) for the second.

COc1ccc(N2CCN(CC(=O)Nc3ccc(C)cc3)CC2)cc1 and COc1ccc(NC(=S)NCCN2CCOCC2)cc1 cannot be ordered by solubility kinetic: 46.8 µg/mL (≈ 138 µM) for the first, greater than 44.3 µg/mL for the second.

First: CC(C)CC(OC(=O)c1nsc(Cl)c1Cl)C(=O)NC1CCCC1 (stereo unspecified)
Second: Cc1cccc(N2CC(C(=O)NC3CCCCCC3)CC2=O)c1C (stereo unspecified)
The solubility kinetic of the first is lower: 22.4 µg/mL (≈ 59.1 µM) for the first, greater than 49.3 µg/mL for the second.

Compared with Cc1cccc(N2C(=O)NC(=O)/C(=C\C=C\c3ccco3)C2=O)c1, COc1cccc(C(=O)Oc2ccc(N3C(=O)CCC3=O)c(C)c2)c1 is higher in solubility kinetic: 39.2 µg/mL (≈ 122 µM) for the first, greater than 50.9 µg/mL for the second.

CN(CC(=O)Nc1cccc(F)c1)C(=O)c1ccncc1 and CN(CC(=O)Nc1cccc2ccccc12)C(=O)c1ccc(NC(=O)CC#N)cc1 cannot be ordered by solubility kinetic: greater than 43.1 µg/mL for the first, greater than 60.1 µg/mL for the second.

Cc1c(NC(=O)COC(=O)c2cccn2C)c(=O)n(-c2ccccc2)n1C and O=C(CNS(=O)(=O)c1ccccc1)Nc1ccc(F)cc1F cannot be ordered by solubility kinetic: greater than 55.3 µg/mL for the first, greater than 48.9 µg/mL for the second.

O=C(O)c1ccc(CNC(=O)C23CC4CC(CC(C4)C2)C3)cc1 and CCOCC(=O)OCC(=O)NC12CC3CC(CC(C3)C1)C2 cannot be ordered by solubility kinetic: greater than 47 µg/mL for the first, greater than 44.3 µg/mL for the second.

Going from Cc1nc(C)c(-c2csc(Nc3ccc(F)cc3)n2)s1 to O=[N+]([O-])c1ccc2nc(NS(=O)(=O)c3ccc(F)cc3)sc2c1, the solubility kinetic rises from 1.8 µg/mL (≈ 5.89 µM) to 49.7 µg/mL (≈ 141 µM) (28-fold).

First: COc1cccc(CNC(=O)CNC(=O)c2cccs2)c1
Second: O=C(Nc1cccc(NC(=O)c2cccs2)c1)c1ccc(F)cc1
The solubility kinetic of the first is higher: greater than 45.7 µg/mL for the first, less than 0.4 µg/mL for the second.

Going from CCc1nc(NC(=O)c2sc(C)nc2C)sc1C(=O)OC to Cc1cccc(N2CC(C(=O)Nc3nccs3)CC2=O)c1C (stereo unspecified), the solubility kinetic falls from greater than 48.8 µg/mL to 42 µg/mL (≈ 133 µM).

CCCOc1ccc(C(=O)NCCN2CCOCC2)cc1.Cl and CC(=O)c1ccc(NC(=S)NCCCN2CCOCC2)cc1 cannot be ordered by solubility kinetic: greater than 49.3 µg/mL for the first, greater than 48.2 µg/mL for the second.

Going from CC1=C(C)C(=O)N(C(C)CCc2ccccc2)C1=O (stereo unspecified) to CC(C)(C)N1CSC(=S)N(Cc2ccccc2)C1, the solubility kinetic rises from 4.4 µg/mL (≈ 17.1 µM) to 16.4 µg/mL (≈ 58.5 µM) (3.7-fold).

Going from O=C(CSc1nncs1)NNC(=O)c1ccccc1Br to O=C(OCC(=O)c1ccc[nH]1)c1cncc(Br)c1, the solubility kinetic falls from greater than 56 µg/mL to 24.2 µg/mL (≈ 78.3 µM).

CCN(CC)CCn1c(-c2ccc(C)cc2)nc(=S)c2c1CC(C)(C)OC2 and CC1(C)Cc2sc3c(=O)[nH]c(=S)[nH]c3c2CO1 cannot be ordered by solubility kinetic: greater than 57.8 µg/mL for the first, greater than 40.3 µg/mL for the second.

Going from CCCN1C(=O)CC(Sc2ncccc2C(=O)O)C1=O (stereo unspecified) to CC(C)(C)N1CC(C(=O)Nc2cccc(Cl)c2Cl)CC1=O (stereo unspecified), the solubility kinetic rises from 42.5 µg/mL (≈ 144 µM) to greater than 49.4 µg/mL.

Going from Cc1cc(C)c(C#N)c(N)n1 to CCN(CC)c1cc(Cl)c2nonc2c1N, the solubility kinetic falls from greater than 22.1 µg/mL to 8.5 µg/mL (≈ 35.3 µM).

CC1=C(C)CC(C(=O)NCc2cccc(Cl)c2)C(C(=O)O)C1 (stereo unspecified) and CC(=O)N[C@@H](Cc1c[nH]c2ccccc12)C(=O)NCc1ccccc1 cannot be ordered by solubility kinetic: greater than 48.3 µg/mL for the first, greater than 50.3 µg/mL for the second.

COc1cc(C(=O)COC(=O)c2ccc([N+](=O)[O-])o2)cc(OC)c1OC and COc1ccc(N=CC2=C(O)CC(C)(C)CC2=O)cc1OC cannot be ordered by solubility kinetic: greater than 54.8 µg/mL for the first, greater than 45.5 µg/mL for the second.

First: O=C1CCN2C=Nc3cccc4ccc1c2c34
Second: COc1ccc2cc(C(C)C(=O)N3CCC(C)CC3)ccc2c1 (stereo unspecified)
The solubility kinetic of the first is 1.8-fold higher: 33.2 µg/mL (≈ 149 µM) for the first, 18.8 µg/mL (≈ 60.4 µM) for the second.

COCCNC(=O)c1cc2sccc2n1C and Cn1c(=O)c2c(ncn2CC(O)CO)n(C)c1=O (stereo unspecified) cannot be ordered by solubility kinetic: greater than 35.7 µg/mL for the first, greater than 38.1 µg/mL for the second.

Compared with CC(C)CN1C(=O)N(c2ccc(Cl)cc2)C(C)(O)CC1(C)C (stereo unspecified), Cc1c(Cl)cccc1NC(=S)NC1CCN(C(C)C)CC1 is higher in solubility kinetic: 4.1 µg/mL (≈ 12.6 µM) for the first, greater than 48.9 µg/mL for the second.

First: S=C(NCCCc1ccccc1)NCc1ccccc1
Second: O=C(CC(Nc1ccccc1)c1ccccc1)C1CC1 (stereo unspecified)
The solubility kinetic of the first is higher: 23.4 µg/mL (≈ 82.3 µM) for the first, less than 0.6 µg/mL for the second.

First: CCOC(=O)N1CCN(CC(O)c2c[nH]c3ccccc23)CC1 (stereo unspecified)
Second: CN(C)c1cccc(C(=O)NC2CCCc3ccccc32)c1 (stereo unspecified)
The solubility kinetic of the first is higher: greater than 47.6 µg/mL for the first, 11.6 µg/mL (≈ 39.4 µM) for the second.

Compared with CC1SCC(=NOCc2c(Cl)cccc2Cl)CS1 (stereo unspecified), COc1cc(OC)c(CNC2CCCCCC2)cc1Br is higher in solubility kinetic: less than 0.7 µg/mL for the first, greater than 51.3 µg/mL for the second.
